Assay results: patent publication US7279321B2, “Methods for increasing the resistance of a host cell to aromatic carboxylic acids” (priority 2003, dated 2007)
Values after ≈ are worked out from the molar mass of the structure shown.

What was measured:
Type in all cases: cell-based
[1] = test system: E. coli strain MG1655 (+); assay: Growth in LB medium in the presence of pHBA, scored visually; note: key: ++++ indicates full turbidity; +++ indicates moderate, but visually less than full turbidity; + indicates very slight turbidity; − indicates no turbidity
Text: (§1) Strain DPD1818 carries a to/C::miniTn10 mutation in the MG1655 background. It was constructed by transduction of E. coli MG1655 using P1clr100 Cm phage grown on E. coli strain DE112 (Van Dyk et al. Appl. Environ. Microbiol. 60:1414-1420 (1994)), which carries a tolC::miniTn10 mutation, and selection for tetracycline resistance. Strain DPD2444, described above, carries a yhcP::TN<Kan> mutation. Strain DP2446 carries both the tolC::miniTn10 and yhcP::TN<Kan>. This strain was constructed using by P1clr100Cm mediated transduction of DE112 with phage grown on strain DPD2443 and selection for kanamycin resistance. Each of these mutant strains was grown overnight in LB medium at 37° C. […] The final volume in the wells of a 96-well microplate was 100 μl and the final dilution of the inoculum was 1 to 1000. This microplate was covered and incubated at 37° C. for 7 hours and then incubated at room temperature for 3 days. The growth in each well was then scored visually.

[2] = test system: E. coli strain DPD2446 (tolC yhcP); assay: as above; note: key: ++++ indicates full turbidity; +++ indicates moderate, but visually less than full turbidity; + indicates very slight turbidity; − indicates no turbidity
Text: as §1

[3] = test system: E. coli strain DPD2444 (yhcP); assay: as above; note: key: ++++ indicates full turbidity; +++ indicates moderate, but visually less than full turbidity; + indicates very slight turbidity; − indicates no turbidity
Text: as §1

[4] = test system: E. coli strain DPD1818 (tolC); assay: as above; note: key: ++++ indicates full turbidity; +++ indicates moderate, but visually less than full turbidity; + indicates very slight turbidity; − indicates no turbidity
Text: as §1

[5] = test system: E. coli strain DH5αE (parental); assay: zone of growth inhibition test on LB agar plates; conditions: disk with 90 μmol pHBA sodium salt, 24 hr at 37° C.
Protocol: (§2) A zone of growth inhibition test was done using 0.1 ml of overnight cultures in LB medium plated onto LB agar plates using 2.5 ml LB soft agar.

[6] = test system: E. coli strain DPD2443 (yhcP::TN<Kan> of DH5αE); assay: zone of growth inhibition test on LB agar plates; conditions: disk with 90 μmol pHBA sodium salt, 24 hr at 37° C.
Protocol: as §2

[7] = test system: E. coli strain DPD2433 (yhcS−); assay: pHBA zone of growth inhibition on solidified Vogel-Bonner medium; conditions: sodium salt of pHBA 80 μmoles/disk, Vogel-Bonner with glucose
Protocol: (§5) This was tested by measuring the size of the zone of growth inhibition and scoring the degree of growth within the zones resulting from the sodium salt of pHBA (80 μmoles/disk) on solidified Vogel-Bonner medium with glucose as the carbon source (Table 5).

[8] = test system: E. coli strain MG1655; assay: as above; conditions: sodium salt of pHBA 80 μmoles/disk, Vogel-Bonner with glucose
Protocol: as §5

[9] = test system: E. coli MG1655 (+) with pDEW668 (yhcRQP); assay: pHBA MIC, 3:4 dilutions, Vogel-Bonner medium with 0.4% glucose; conditions: Escherichia coli, MG1655, 21 h, read-out: pHBA MIC
Text: (§3) An additional experiment is consistent with the above conclusion. This experiment used E. coli strain MG1655 and strains derived from it, DPD1818 (described above in this example) with a to/C::miniTn10 mutation, […] (described in example 3) with a yhcS::TN<Kan> mutation, and DPD2435 that carries both the to/C::miniTn10 and yhcS::TN<Kan> mutations. The latter strain was constructed using P1clr100Cm mediated transduction of DE112 with phage grown on strain DPD2410 (described in Example 3) and selection for kanamycin resistance. These four strains were each transformed with plasmids pTrcHis2TOPO®/lacZ (Invitrogen) for a control and pDEW668 that expresses the yhcRQP operon (described in Example 2). […] Vogel-Bonner minimal medium with 0.4% glucose was used. […] The inoculum was 50 μl of a 1:500 dilution into Vogel-Bonner medium with 0.4% glucose as a carbon source of overnight cultures of each of the plasmid-containing strains grown in the same medium except with addition of 25 μg/ml Ampicillin.

[10] = test system: E. coli DPD2435 (yhcS−, tolC−) with pTrcHis2TOPO®/lacZ (control); assay: as above; conditions: Escherichia coli, 21 h, read-out: pHBA MIC
Text: as §3

[11] = test system: E. coli DPD2435 (yhcS−, tolC−) with pDEW668 (yhcRQP); assay: as above; conditions: Escherichia coli, 21 h, read-out: pHBA MIC
Text: as §3

[12] = test system: E. coli DPD1818 (tolC−) with pTrcHis2TOPO®/lacZ (control); assay: as above; conditions: Escherichia coli, 21 h, read-out: pHBA MIC
Text: as §3

[13] = test system: E. coli DPD1818 (tolC−) with pDEW668 (yhcRQP); assay: as above; conditions: Escherichia coli, 21 h, read-out: pHBA MIC
Text: as §3

[14] = test system: E. coli strain DPD2455 (DPD2433 yhcS− with pDEW673 yhcQP); conditions: sodium salt of pHBA 80 μmoles/disk
Text: (§4) Plasmids pDEW668, pDEW673, pDEW675, and a control plasmid, pTrcHis2TOPO®/lacZ (Invitrogen), were moved by transformation to E. coli strain DPD2433, selecting for Ampicillin resistance, to generate strains DPD3317, DPD2455, DPD2457, and DPD3316, respectively.

[15] = test system: E. coli strain DPD3316 (DPD2433 yhcS− with pTrcHis2TOPO®/lacZ control); conditions: sodium salt of pHBA 80 μmoles/disk
Text: as §4

[16] = test system: E. coli strain DPD2457 (DPD2433 yhcS− with pDEW675 yhcRQ); conditions: sodium salt of pHBA 80 μmoles/disk
Text: as §4

[17] = test system: E. coli strain DPD3317 (DPD2433 yhcS− with pDEW668 yhcRQP); conditions: sodium salt of pHBA 80 μmoles/disk
Text: as §4

[18] = Vogel-Bonner 0.4% glucose, average of two experiments

Structure (SMILES): O=C(O)c1ccc(O)cc1 [pHBA, para-hydroxybenzoic acid]
- Growth in LB medium for 3 days at room temperature with pHBA ([1]; 25 mM pHBA sodium salt): ++++
- Growth in LB medium for 3 days at room temperature with pHBA ([1]; 50 mM pHBA sodium salt): ++++
- Growth in LB medium for 3 days at room temperature with pHBA ([1]; 100 mM pHBA sodium salt): +++
- Growth in LB medium for 3 days at room temperature with pHBA ([1]; 200 mM pHBA sodium salt): −
- Growth in LB medium for 3 days at room temperature with pHBA ([2]; 25 mM pHBA sodium salt): ++++
- Growth in LB medium for 3 days at room temperature with pHBA ([2]; 50 mM pHBA sodium salt): +
- Growth in LB medium for 3 days at room temperature with pHBA ([2]; 100 mM pHBA sodium salt): −
- Growth in LB medium for 3 days at room temperature with pHBA ([2]; 200 mM pHBA sodium salt): −
- Growth in LB medium for 3 days at room temperature with pHBA ([3]; 25 mM pHBA sodium salt): ++++
- Growth in LB medium for 3 days at room temperature with pHBA ([3]; 50 mM pHBA sodium salt): ++++
- Growth in LB medium for 3 days at room temperature with pHBA ([3]; 100 mM pHBA sodium salt): −
- Growth in LB medium for 3 days at room temperature with pHBA ([3]; 200 mM pHBA sodium salt): −
- Growth in LB medium for 3 days at room temperature with pHBA ([4]; 25 mM pHBA sodium salt): ++++
- Growth in LB medium for 3 days at room temperature with pHBA ([4]; 50 mM pHBA sodium salt): ++++
- Growth in LB medium for 3 days at room temperature with pHBA ([4]; 100 mM pHBA sodium salt): +
- Growth in LB medium for 3 days at room temperature with pHBA ([4]; 200 mM pHBA sodium salt): −
- pHBA zone of growth inhibition, mm diameter [5]: 9.0 mm
- pHBA zone of growth inhibition, mm diameter [6]: 13.0 mm
- degree of growth within the pHBA zone of growth inhibition [7]: clear
- pHBA zone of growth inhibition, mm diameter ([7]; average of two experiments): 20.2 mm
- degree of growth within the pHBA zone of growth inhibition [8]: turbid
- pHBA zone of growth inhibition, mm diameter ([8]; average of two experiments): 9.5 mm
- MIC [9]: 100 mM (≈ 13.8 mg/mL)
- MIC [10]: 13 mM (≈ 1.8 mg/mL)
- MIC [11]: 100 mM (≈ 13.8 mg/mL)
- MIC [12]: 56 mM (≈ 7.73 mg/mL)
- MIC [13]: 100 mM (≈ 13.8 mg/mL)
- clarity of pHBA zone of growth inhibition [14]: turbid
- pHBA zone of growth inhibition, mm diameter [14, 18]: 9.5 mm
- clarity of pHBA zone of growth inhibition [15]: clear
- pHBA zone of growth inhibition, mm diameter [15, 18]: 23.5 mm
- clarity of pHBA zone of growth inhibition [16]: slightly turbid
- pHBA zone of growth inhibition, mm diameter [16, 18]: 17.0 mm
- clarity of pHBA zone of growth inhibition [17]: turbid
- pHBA zone of growth inhibition, mm diameter [17, 18]: 9.8 mm
